Patent US12281123B2, “Benzoxazinone compounds as KLK5/7 dual inhibitors” (MOLECULAR SKIN THERAPEUTICS, INC., priority 2019, dated 2025)
Several values for one entry are separate records, joined by “and”; a condition that tells them apart may be missing. Equal values may be shown once. Read-outs that look alike come from different tables or passages of the source.

Tests used:
Type in all cases: biochemical
[1] = biological target: T1, KLK7 (Homo sapiens, UniProt P49862); test: Recombinant KLK7 chromogenic IC50 assay
T1 construct: purchased R&D Biosystems (Minneapolis, MN) / R&Dsystems; host or cells: mouse myeloma cells
T1 sequence (P49862 30-253): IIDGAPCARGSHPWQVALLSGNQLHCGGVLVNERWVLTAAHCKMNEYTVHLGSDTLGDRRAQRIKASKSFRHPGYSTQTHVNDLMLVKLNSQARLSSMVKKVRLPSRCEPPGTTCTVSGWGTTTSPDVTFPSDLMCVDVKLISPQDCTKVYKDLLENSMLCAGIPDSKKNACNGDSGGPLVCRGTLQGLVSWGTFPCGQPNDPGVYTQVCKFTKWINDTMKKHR
Source text: (§1) Human Kallikrein Proteins: Recombinant human KLK5 expressed in HEK293 was obtained from SpeedBio (Gaithersburg, MD). Recombinant proenzyme KLK-7 and recombinant proenzyme KLK-14 both expressed in mouse myeloma cells were from R&D Biosystems (Minneapolis, MN). Plasmin and thrombin were from Haematologic Technologies (Essex Junction, VT). Trypsin and Chymotrypsin were bought from Worthington Biochemical Corporation (Lakewood, NJ) and plasma kallikrein was from Prospec (East Brunswick, NJ). Neutrophil Elastase was obtained from Innovative Research (Peary Court, MI). Bovine recombinant enterokinase expressed in E. coli was bought from Sigma (St. Louis, MI). Matriptase expressed in E. coli was obtained from Enzo Life Sciences (Farmingdale, NY). The control inhibitors Nafamostat mesylate was from Sigma (St. Louis, MI) and (2-(2-fluorophenyl)-5,6,7,8-tetrahydro-4H-benzo[4,5]thieno[2,3-d][1,3]oxazin-4-one was from Interbioscreen (Moskow, Russia).
(§2) Substrates: S-2288 (D-Ile-Pro-Arg-pNA), CS-PSA (MeO-Suc-Arg-Pro-Tyr-pNA), S-2266 (H-D-Val-Leu-Arg-pNA) and S-2288 (H-D-Ile-Pro-Arg-pNA) were bought from Diapharma (West Chester, OH). MeOSuccAla-Ala-Pro-Val-pNA was purchased from Sigma (St Louis, MI). The substrates were dissolved in water at 10 mM and were frozen in aliquots at −20° C.
Activation of KLK-7 and KLK-14: 150 μL 8 μM solution of the proenzymes of KLK-7 or KLK-14 in 50 mM Tris, 10 mM CaCl2, 150 mM NaCl, 0.05% (w/v) Brij-35, pH 7.5 were mixed with 150 μL 10 μg/mL bovine enterokinase in the same buffer and incubated for 2 h for KLK-7 and 1 h for KLK-14 at 37° C. After the incubation period, activation was stopped by addition of 6 μL 0.5 M EDTA pH 8.0.
(§3) Assays: All assays were performed in 384 well polystyrene plates coated overnight with 0.1% Tween 20 at 4° C. The plates were then washed twice with 100 μL water and dried. For the determination of IC50 values, the inhibitors were diluted in serial dilutions of 1:3 intervals into pure DMSO at 50 fold of the intended final concentrations in the assays. Usually eight inhibitor dilutions and one DMSO control were prepared. The substrates were diluted into water at 2.2-fold the final concentration in the assay mixture. The wells of the plate were filled with 50 μL of the enzyme diluted in 2× assay buffer (100 mM Tris, 200 mM NaCl, 0.2% PEG, 0.01% Tween, 2 mM EDTA, pH 8.0) at twofold the intended concentration. Then 5 μL DMSO, 2.2 μL inhibitor and 45 μL substrate were added to start the reaction. The assays were monitored at 37° C. in a multi well plate reader at a wavelength of 405 nm (Molecular Devices, San Jose, CA) for 1 h. The tool inhibitor, nafamostat, was used as a control for trypsin, thrombin, KLK-5 and KLK-14 at 10 μM maximal concentration and (2-(2-fluorophenyl)-5,6,7,8-tetrahydro-4H-benzo[4,5]thieno[2,3-d][1,3]oxazin-4-one for KLK-7 at 5 μM.
(§4) The table summarizes assay conditions for the individual enzymes:
(§5) Data analysis: The progress curves of substrate hydrolysis were analyzed by linear regression of the final 20 min of the reaction. Fit of the dose response of the resulting rates to the following equation yielded the IC50:
(§6) [formula] with 1) c: the background rate at the highest inhibitor concentration; 2) d: the rate of the control reaction; 3) IC50: the IC50 of the inhibitor; 4) x: the inhibitor concentration; and 5) b: the slope.
(§7) Proteases: KLK5 (SpeedBioSystems); KLK7 (R&Dsystems) was activated with enterokinase (2 hours, 37° C.) prior to assay; Trypsin (Sigma Aldrich); Chymotrypsin (Sigma Aldrich); Factor Xa (Haematologic Technologies); Plasmin (Haematologic Technologies); KLK14 (R&Dsystems) was activated with enterokinase (1 hour, 37° C.) prior to assay; Thrombin (Haematologic Technologies); Neutrophil Elastase (Athens Research&Technology); and KLK1 (Prospec).

[2] = biological target: T2, KLK1 (Homo sapiens, UniProt P06870); test: Chromogenic assay, KLK1; conditions: KLK1 10 nM; S-2266 200 μM; highest conc. of 1.001 50 μM
T2 construct: purchased Prospec
T2 sequence (P06870 25-262): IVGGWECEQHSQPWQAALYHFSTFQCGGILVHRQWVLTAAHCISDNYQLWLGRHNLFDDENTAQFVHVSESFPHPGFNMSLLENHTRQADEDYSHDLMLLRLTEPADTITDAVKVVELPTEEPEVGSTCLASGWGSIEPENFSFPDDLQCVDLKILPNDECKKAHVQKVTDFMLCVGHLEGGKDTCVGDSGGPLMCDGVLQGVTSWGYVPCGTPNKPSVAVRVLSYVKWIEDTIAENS
Procedure: as §2
as §3, with “The tool inhibitor, nafamostat, was used as a control for trypsin, thrombin, KLK-5 and KLK-14 at 10 μM maximal concentration and (2-(2-fluorophenyl)-5,6,7,8-tetrahydro-4H-benzo[4,5]thieno[2,3-d][1,3]oxazin-4-one for KLK-7 at 5 μM.” left out
(§8) Data analysis: The progress curves of substrate hydrolysis were analyzed by linear regression of the final 20 min of the reaction. […]

[3] = biological target: Chymotrypsin (Bos taurus, UniProt P00766); test: Chromogenic assay, chymotrypsin
Source text: as §1, §2
Assays: All assays were performed in 384 well polystyrene plates coated overnight with 0.1% Tween 20 at 4° C. The plates were then washed twice with 100 μL water and dried. For the determination of IC50 values, the inhibitors were diluted in serial dilutions of 1:3 intervals into pure DMSO at 50 fold of the intended final concentrations in the assays. Usually eight inhibitor dilutions and one DMSO control were prepared. The substrates were diluted into water at 2.2-fold the final concentration in the assay mixture. […] The assays were monitored at 37° C. in a multi well plate reader at a wavelength of 405 nm (Molecular Devices, San Jose, CA) for 1 h. […]
as §8

[4] = biological target: T3, Thrombin (Homo sapiens, UniProt P00734); test: Chromogenic assay, thrombin; conditions: Thrombin 0.5 nM; S-2288 500 μM; highest conc. of 1.001 100 μM
T3 construct: purchased Haematologic Technologies (Essex Junction, VT)
Source text: as §1, with “Russia). […]” for “Russia).”
(§9) Assays: All assays were performed in 384 well polystyrene plates coated overnight with 0.1% Tween 20 at 4° C. […] The assays were monitored at 37° C. in a multi well plate reader at a wavelength of 405 nm (Molecular Devices, San Jose, CA) for 1 h. […]
as §8

[5] = biological target: T4, Recombinant human KLK5 (Homo sapiens, UniProt Q9Y337); test: Recombinant KLK5 chromogenic IC50 assay
T4 construct: purchased SpeedBio (Gaithersburg, MD) / SpeedBioSystems; host or cells: HEK293
T4 sequence (Q9Y337 23-293): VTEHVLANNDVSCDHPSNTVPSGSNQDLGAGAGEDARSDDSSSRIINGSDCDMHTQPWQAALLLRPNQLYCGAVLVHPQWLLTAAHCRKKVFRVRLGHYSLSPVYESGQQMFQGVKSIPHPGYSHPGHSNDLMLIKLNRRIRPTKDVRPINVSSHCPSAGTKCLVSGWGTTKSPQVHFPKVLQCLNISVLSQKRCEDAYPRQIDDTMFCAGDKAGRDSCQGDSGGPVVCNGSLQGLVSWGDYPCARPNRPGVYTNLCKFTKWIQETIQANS
Source text: as §1, §2, §3, §4, §5, §6, §7

[6] = biological target: T5, Trypsin (UniProt P00760); test: Chromogenic assay, trypsin; conditions: Trypsin 0.1 nM; S-2288 500 μM; highest conc. of 1.001 50 μM
T5 sequence (P00760 1-246): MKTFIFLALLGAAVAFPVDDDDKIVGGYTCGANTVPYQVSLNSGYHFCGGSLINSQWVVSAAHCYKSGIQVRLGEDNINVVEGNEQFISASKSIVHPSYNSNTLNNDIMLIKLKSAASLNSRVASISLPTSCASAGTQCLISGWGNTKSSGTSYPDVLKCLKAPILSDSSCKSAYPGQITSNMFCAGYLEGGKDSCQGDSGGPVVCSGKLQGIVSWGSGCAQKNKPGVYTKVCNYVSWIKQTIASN
Source text: as §1, with “Russia). […]” for “Russia).”
as §9, §8

[7] = Chymotrypsin 0.2 nM, CS-PSA 500 μM, highest conc. of 1.001 50 μM

Row | SMILES | IC50 ([1]; Table 2, assay protocol of Example 3, read-out: Recombinant KLK7 enzyme (IC50)) | IC50 ([1]; Table 3, KLK7 20 nM, CS-PSA 500 μM, highest conc. of 1.001 20 μM, read-out: IC50 (μM), KLK7) | Inhibition of KLK7, conclusion in words ([1]; conclusion from Table 3) | IC50 (μM), KLK1 [2] | IC50 [3, 7] | Inhibition of Chymotrypsin, conclusion in words ([3]; conclusion from Table 3) | IC50 [4] | IC50 ([5]; Table 2, assay protocol of Example 3, read-out: Recombinant KLK5 enzyme (IC50)) | IC50 ([5]; Table 3, KLK5 10 nM, S-2288 500 μM, highest conc. of 1.001 10 μM, read-out: IC50 (μM), KLK5) | Inhibition of KLK5, conclusion in words ([5]; conclusion from Table 3) | IC50 [6] | IC50 (μM), KLK7 ([1]; Table 3, KLK7 20 nM, CS-PSA 500 μM, highest conc. of 1.001 20 μM) | IC50 (μM), Chymotrypsin [3, 7] | IC50 (μM), Thrombin [4] | IC50 (μM), KLK5 ([5]; Table 3, KLK5 10 nM, S-2288 500 μM, highest conc. of 1.001 10 μM) | IC50 (μM), Trypsin [6]
1 | CS(=O)(=O)c1cc(CO)ccc1-c1nc2cc3c(cc2c(=O)o1)OCCO3 [Compound 1.001, 2-(4-(Hydroxymethyl)-2-(methylsulfonyl)phenyl)-7,8-dihydro-4H-[1,4]dioxino[2′,3′:4,5]benzo[1,2-d][1,3]oxazin-4-one] | 0.34 µM | 0.647 µM and 0.693 µM | inhibitor | No inhibition | 0.249 µM and 0.317 µM | inhibitor | > 10 µM | 0.21 µM | 0.176 µM and 0.188 µM | inhibitor | 1.66 µM and 1.36 µM and 2.2 µM |  |  |  |  | 
2 | CS(=O)(=O)c1cc(CO)ccc1C(=O)Nc1cc2c(cc1C(=O)O)OCCO2 [Compound 408, reference compound] |  |  |  | No inhibition |  |  |  |  |  |  |  | No inhibition | No inhibition | No inhibition | No inhibition | No inhibition
